Results on twelve substances are retold here after patent US20260258088A1, “DISC1-BINDING PEPTIDES AND THE USE THEREOF FOR THE TREATMENT AND DIAGNOSIS OF SCHIZOPHRENIA AND OTHER CHRONIC MENTAL DISORDERS” (FORSCHUNGSZENTRUM JUELICH GMBH, priority 2022, published 2026).

Changes are numbered by the printed parent chain. Ends that are not written are not given here.

Broadly, the Kd is the concentration at which binding is half-saturated. High values mean weaker binding, low ones tighter binding.

Common to all, as to settings: peptide immobilized, protein 2 μM, 25° C., TBS pH 7.4, KD = Koff/Kon
For experiment [1], the target named is T1, wild-type (WT) human DISC1 C-region (residues 691-836) (Homo sapiens, UniProt Q9NRI5).
T1 construct: human DISC1 C-region (residues 691-836); His6 (N); made in house; host or cells: E. coli BL21 (DE3) pLysE T1R
T1 sequence (Q9NRI5 691-836): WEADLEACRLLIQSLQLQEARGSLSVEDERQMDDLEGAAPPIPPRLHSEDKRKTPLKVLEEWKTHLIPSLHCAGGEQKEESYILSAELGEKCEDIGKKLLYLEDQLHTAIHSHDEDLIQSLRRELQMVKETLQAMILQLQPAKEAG
Put plainly: Bio-layer interferometry (BLI) binding of immobilized peptides to WT C-region. Here is the method: Protein expression and purification. The wild-type (WT) human DISC1 C-region (residues 691-836) was expressed alternatively as N-terminal His6—fusion construct, which was expressed as previously described using the E. coli BL21 (DE3) pLysE T1R cells. The culture was grown either in Luria-Bertani (LB) broth and protein expression was induced at an OD600 of 0.6 by the addition of 1 mM isopropyl-β-D-thiogalactopyranoside (IPTG) for 16 h at 18° C. Harvested cells were lysed using an ice-chilled microfluidizer M100P (Microfluidics MPT) at 15, 000 PSI in Tris-buffered saline (TBS) buffer containing 10 mM Tris-HCl pH 7.4, 150 mM NaCl and Complete EDTA-free protease inhibitor cocktail (Roche). The soluble fraction was purified on Co^2+-NTA resin (Qiagen) and was eluted using TBS containing 500 mM imidazole. In the next step, the WT C-region protein was further purified on a HiLoad 16/60 Superdex 200 size exclusion chromatography column (GE Healthcare Bio Sciences).
(§1) Bio-layer interferometry (BLI) for identification of peptide leads. Binding of the peptides with the C-region constructs (WT, S713E, S704C and L807-FS) were investigated using an Octet (ForteBio) instrument. Prior to measurements, all peptides were solubilized in phosphate buffered saline (PBS) containing 20 mM Na-phosphate, pH 7.4, and 150 mM NaCl. For coupling of the peptide (ligand), the A2RG sensor chip (Sartorius GmbH) were activated with 1-ethyl-3-(3-dimethylaminopropyl) carbodiimide (EDC)/N hydroxysuccinimide (NHS) (200 mM/50 mM); the peptides were diluted to 2 μM in 10 mM sodium acetate, pH 4.0, and immobilized to the sensor chip, and the flow cell was deactivated with 0.1 M ethanolamine-HCl, pH 8.5. Titrations of the above-mentioned C-region and the constructs were performed at 25° C. with TBS, pH 7.4 as the running buffer using protein concentrations of 2 μM without intermittent regeneration.
Data analysis of peptide-protein interaction. In order to assess the binding isotherms of the protein to the immobilized peptides, I derived the binding affinity (KD) by computing the on-rate (Kon) and the off-rate (Koff) by deriving the reciprocals of the exponential fittings of association and dissociation (OriginPro 2020).
The binding affinity (KD) was derived by dividing the off-rate (Koff) with the on-rate (Kon).

The target of experiment [2] is DISC1 C-region (residues 691-836) mutant L807-FS. Put plainly: Bio-layer interferometry (BLI) binding of immobilized peptides to L807-FS C-region. Also noted: species or system human. On the procedure: as §1, with “regeneration. Data analysis of peptide-protein interaction. In order to assess the binding isotherms of the protein to the immobilized peptides, I derived the binding affinity (KD) by computing the on-rate (Kon) and the off-rate (Koff) by deriving the reciprocals of the exponential fittings of association and dissociation (OriginPro 2020). The binding affinity (KD) was derived by dividing the off-rate (Koff) with the on-rate (Kon).” for “regeneration.”
(BLI is a label-free optical method that tracks binding on a fibre tip over time.)

Experiment [3] has as its target T2, DISC1 C-region (residues 691-836) mutant S713E (Homo sapiens, UniProt Q9NRI5, S713E).
T2 construct: DISC1 C-region (residues 691-836) mutant versions S704C, and/or 713E and/or L807-FS
T2 sequence (Q9NRI5 691-836 S713E): T1 sequence (Q9NRI5 691-836) with S23E
Description: Bio-layer interferometry (BLI) binding of immobilized peptides to S713E C-region. On the procedure:
as §1, with “regeneration. Data analysis of peptide-protein interaction. In order to assess the binding isotherms of the protein to the immobilized peptides, I derived the binding affinity (KD) by computing the on-rate (Kon) and the off-rate (Koff) by deriving the reciprocals of the exponential fittings of association and dissociation (OriginPro 2020). The binding affinity (KD) was derived by dividing the off-rate (Koff) with the on-rate (Kon).” for “regeneration.”

Experiment [4] deals with T3, DISC1 C-region (residues 691-836) mutant S704C (Homo sapiens, UniProt Q9NRI5, S704C).
T3 construct: DISC1 C-region (residues 691-836) mutant versions S704C, and/or 713E and/or L807-FS
T3 sequence (Q9NRI5 691-836 S704C): T1 sequence (Q9NRI5 691-836) with S14C
Put plainly: Bio-layer interferometry (BLI) binding of immobilized peptides to S704C C-region. Here is the method: as §1, with “regeneration. Data analysis of peptide-protein interaction. In order to assess the binding isotherms of the protein to the immobilized peptides, I derived the binding affinity (KD) by computing the on-rate (Kon) and the off-rate (Koff) by deriving the reciprocals of the exponential fittings of association and dissociation (OriginPro 2020). The binding affinity (KD) was derived by dividing the off-rate (Koff) with the on-rate (Kon).” for “regeneration.”

In the case of “GIKSLISNKMHTQWNY-NH2 [Flm5, GIKSLISNKMHTQWNY-NH2]”, the Kd in experiment [1] came out at 640 nM; in experiment [2], 110 nM; in experiment [3], 80 nM; in experiment [4], 150 nM.

Regarding “QDNPWWHEHKHWKSWP-NH2 [Flo5, QDNPWWHEHKHWKSWP-NH2]”, the Kd in experiment [1] was found to be 250 nM; in experiment [2], 270 nM; in experiment [3] it was 210 nM; in experiment [4], 360 nM.

In the case of “AWQHHELKWKQYQGWR-NH2 [Flm2, AWQHHELKWKQYQGWR-NH2]”, the Kd in experiment [1] worked out at 640 nM; in experiment [2], 110 nM; in experiment [3], 220 nM; in experiment [4], 150 nM.

For “TSGVPWWKFQQQVRRT-NH2 [Flo11, TSGVPWWKFQQQVRRT-NH2]”, the Kd in experiment [1] came to 3680 nM; in experiment [2], 160 nM; in experiment [3] it was 890 nM; in experiment [4], 1060 nM.

For the substance “KYTAIHEWYKAHNGGA-NH2 [Flo8, KYTAIHEWYKAHNGGA-NH2]”, the Kd in experiment [1] turned out to be 2620 nM; in experiment [2], 170 nM; in experiment [3] it was 460 nM; in experiment [4] it was 1040 nM.

Regarding “HISMQTYKWSQWAKHQ-NH2 [Flo3, HISMQTYKWSQWAKHQ-NH2]”, the Kd in experiment [1] was 2620 nM; in experiment [2], 400 nM; in experiment [3] it was 420 nM; in experiment [4], 270 nM.

For “WNHPMNIRSISWHKDS-NH2 [Flm6, WNHPMNIRSISWHKDS-NH2]”, the Kd came to 2010 nM in experiment [1], 530 nM in experiment [2], 1070 nM in experiment [3] and 2240 nM in experiment [4].

For “IWAGHIHDWWRRGQGS-NH2 [Flm1, IWAGHIHDWWRRGQGS-NH2]”, the Kd in experiment [1] worked out at 150 nM; in experiment [2], 200 nM; in experiment [3] it was 80 nM; in experiment [4] it was 80 nM.

“SNWHPRHFFMSPSSPQ-NH2 [Flo6, SNWHPRHFFMSPSSPQ-NH2]”: the Kd in experiment [1] came out at 2360 nM; in experiment [2] it was 170 nM; in experiment [3], 460 nM; in experiment [4], 720 nM.

For the substance “FPHPTLKHREFMRHVS-NH2 [Flo1, FPHPTLKHREFMRHVS-NH2]”, the Kd worked out at 100 nM in experiment [1], 40 nM in experiment [2], 70 nM in experiment [3] and 160 nM in experiment [4].

On to “HKLHHLLKWENQHKVE-NH2 [Flm11, HKLHHLLKWENQHKVE-NH2]”, for which the Kd in experiment [1] stood at 1270 nM; in experiment [2], 540 nM; in experiment [3], 420 nM; in experiment [4], 720 nM.

As to “PWYNAPHSHGFWGSGR-NH2 [Flm9, PWYNAPHSHGFWGSGR-NH2]”, the Kd in experiment [1] stood at 3200 nM; in experiment [2] it was 390 nM; in experiment [3], 1500 nM; in experiment [4], 1490 nM.
